In patent US10543189B2, “2-acetylnaphtho[2,3-b]furan -4,9-dione for use on treating cancer” (Boston Biomedical, Inc., priority 2013, dated 2020):

Assay: Phase 1 extension study of higher strength capsule (DP2A): adverse events
Type: in vivo
Details: AE possibly related to BBI608
Description: However, with the higher strength capsules, we observed worsening gastrointestinal adverse effects including nausea, vomiting, and diarrhea in patients.
Additional studies were run using an oral formulation of the Compound of the Invention, specifically a higher strength capsule formulation (DP2A). As described herein, the Compound of the Invention blocks cancer stem cell (CSC) self-renewal and induces cell death in CSC as well as non-stem cancer cells by inhibiting Stat3, β-catenin, and Nanog pathways, and has shown potent anti-tumor and anti-metastatic activities pre-clinically. […] The studies described herein were designed as a phase 1 extension study to evaluate a formulation designed for pivotal trials to determine pharmacokinetics (PK) in patients with advanced cancer.
On Day 1, patients received a single 500 mg dose of an oral administration formulation of the Compound of the Invention (DP1). On Day 4 and Day 8, a higher strength capsule designed for pivotal trials (DP2A) was given with fasting then fed conditions. DP2A was then administered daily until disease progression or unacceptable toxicity. Endpoints were safety, PK and preliminary anticancer activity.

## CC(=O)c1cc2c(o1)C(=O)c1ccccc1C2=O [Compound 1, 2-acetylnaphtho[2,3-b]furan-4,9-dione]
Q 4 h dosing (N = 17)
  hypophosphatemia, Grade 3, # Subjects: 1
  hypophosphatemia, Grade 3, %: 5.9%
Q 12 h dosing (N = 11)
  Abdominal cramps/pain, Grade 1 or 2, # Subjects: 5
  Abdominal cramps/pain, Grade 1 or 2, %: 45.5%
  Abdominal cramps/pain, Grade 3, # Subjects: 0
  Abdominal cramps/pain, Grade 3, %: 0.0%
  Anorexia, Grade 1 or 2, # Subjects: 1
  Anorexia, Grade 1 or 2, %: 9.1%
  Anorexia, Grade 3, # Subjects: 0
  Anorexia, Grade 3, %: 0.0%
  Bloated abdomen, Grade 1 or 2, # Subjects: 0
  Bloated abdomen, Grade 1 or 2, %: 0.0%
  Bloated abdomen, Grade 3, # Subjects: 0
  Bloated abdomen, Grade 3, %: 0.0%
  Dehydration, Grade 1 or 2, # Subjects: 0
  Dehydration, Grade 1 or 2, %: 0.0%
  Dehydration, Grade 3, # Subjects: 0
  Dehydration, Grade 3, %: 0.0%
  Depression, Grade 1 or 2, # Subjects: 1
  Depression, Grade 1 or 2, %: 9.1%
  Depression, Grade 3, # Subjects: 0
  Depression, Grade 3, %: 0.0%
  Diarrhea, Grade 1 or 2, # Subjects: 7
  Diarrhea, Grade 1 or 2, %: 63.6%
  Diarrhea, Grade 3, # Subjects: 0
  Diarrhea, Grade 3, %: 0.0%
  Dysgusia, Grade 1 or 2, # Subjects: 0
  Dysgusia, Grade 1 or 2, %: 0.0%
  Dysgusia, Grade 3, # Subjects: 0
  Dysgusia, Grade 3, %: 0.0%
  Fatigue/weakness, Grade 1 or 2, # Subjects: 4
  Fatigue/weakness, Grade 1 or 2, %: 36.4%
  Fatigue/weakness, Grade 3, # Subjects: 1
  Fatigue/weakness, Grade 3, %: 9.1%
  Flatulence, Grade 1 or 2, # Subjects: 2
  Flatulence, Grade 1 or 2, %: 18.2%
  Flatulence, Grade 3, # Subjects: 0
  Flatulence, Grade 3, %: 0.0%
  Nausea, Grade 1 or 2, # Subjects: 2
  Nausea, Grade 1 or 2, %: 18.2%
  Nausea, Grade 3, # Subjects: 0
  Nausea, Grade 3, %: 0.0%
  Rectal/Anal Burning, Grade 1 or 2, # Subjects: 1
  Rectal/Anal Burning, Grade 1 or 2, %: 9.1%
  Rectal/Anal Burning, Grade 3, # Subjects: 0
  Rectal/Anal Burning, Grade 3, %: 0.0%
  Reflux (also heartburn), Grade 1 or 2, # Subjects: 0
  Reflux (also heartburn), Grade 1 or 2, %: 0.0%
  Reflux (also heartburn), Grade 3, # Subjects: 0
  Reflux (also heartburn), Grade 3, %: 0.0%
  Urine Color Change, Grade 1 or 2, # Subjects: 0
  Urine Color Change, Grade 1 or 2, %: 0.0%
  Urine Color Change, Grade 3, # Subjects: 0
  Urine Color Change, Grade 3, %: 0.0%
  Vomiting, Grade 1 or 2, # Subjects: 1
  Vomiting, Grade 1 or 2, %: 9.1%
  Vomiting, Grade 3, # Subjects: 0
  Vomiting, Grade 3, %: 0.0%
  Weight loss, Grade 1 or 2, # Subjects: 0
  Weight loss, Grade 1 or 2, %: 0.0%
  Weight loss, Grade 3, # Subjects: 0
  Weight loss, Grade 3, %: 0.0%
  Xerostomia, Grade 1 or 2, # Subjects: 2
  Xerostomia, Grade 1 or 2, %: 18.2%
  Xerostomia, Grade 3, # Subjects: 0
  Xerostomia, Grade 3, %: 0.0%
  hypophosphatemia, Grade 1 or 2, # Subjects: 0
  hypophosphatemia, Grade 1 or 2, %: 0.0%
  hypophosphatemia, Grade 3, # Subjects: 0
  hypophosphatemia, Grade 3, %: 0.0%
